Consider six compounds from patent US12582719B2, “Chimeric compounds and methods of managing neurological disorders or conditions” (Emory University, priority 2019, dated 2026).

Data set [1] deals with immobility in forced swim test. Description: Forced swimming test (FST). The data set is classed as in vivo, mice. Conditions: for improvement in forced-swim test (antidepressant-like activity): C57BL female mice, 6 h after injection, versus control. As for the experimental part: The FST experiment was performed twice, the first experiment comparing the control group and the HM3a-R group, and the second experiment comparing the control group and the belinostat group. In the first FST, randomly selected C57BL adult female mice (6 weeks, 20 g) were divided into two groups of eight mice per group. And the second FST, randomly selected C57BL adult female mice (6 weeks, 20 g) were divided into two groups of five mice per group. Chimeric compounds, HM3a-R (FIG. 2A) was dissolved in 10% dimethyl sulfoxide and 90% vehicle mixture. Vehicle formulation is 45% (2-hydroxypropyl)-β-cyclodextrin solution. Then, HM3a-R or belinostat as dose 75 mg/kg or vehicle (for control) was injected into mice with 100 μL volume intraperitoneally. After 6 h, two 3-liter beakers were filled approximately with 2 L water at 25+/-0.5 degrees Celsius. Camcorder was placed, directly across from two beakers. Each pair of mice (i.e., one control mouse and one treated mouse) was placed into each beaker. Every trial was video recorded in this manner for 10 minutes. While the beakers were adjacent to each other, they were enclosed by cardboard boxes. The immobile times (between 2 and 8 minutes of 10-minute trial) for each pair of mice were counted by the person who was blinded to the identities of the control and treated mice pairs.

The nature of the next data set: Cellular toxicity. The data set is classed as cell-based.
Another data set relates to xylene-induced ear edema. Put plainly: Xylene-induced mouse ear edema test. Conditions: for anti-inflammation effect compared with the control group against xylene-induced ear edema: 10 mg/kg intraperitoneally, C57BL female mice, 2 h after xylene. The data set is classed as in vivo, mice. Here is the method: Randomly selected C57BL adult female mice (6 weeks, ˜20 g) were divided into three groups of five mice in per group. Chimeric compounds (HM3a-R, HM3a-S, FIG. 2A) were dissolved in 10% dimethyl sulfoxide and 90% vehicle mixture. Vehicle formulation is 45% (2-hydroxypropyl)-β-cyclodextrin solution. And then, the compounds or vehicle were injected into mice as does 10 mg/kg and injection volume 100 μL intraperitoneally. After 30 min, mice treated 30 μL of xylene on the anterior and posterior surfaces of the right ear lobe, the left ear was considered as control. Two hours later, mice were sacrificed by using CO2 gas and both ears were cut off by using a cork borer with a diameter of 7 mm and weighed and the percentage of ear edema was calculated based on the weight of another ear without xylene.

A further data set concerns histone H4 deacetylation. Description: In vitro HDACI activity test (western blot, acetylated histone H4). The data set is classed as cell-based. Conditions: 9 L rat glioma cell line; for histone H4 acetylation: 5 μM, western blot. As for the experimental part:
The HDACI activity chimeric compounds were tested by western blot using a specific antibody against acetylated histone H4, and 9 L rat glioma cell line. the inhibitory activity of HM3a-R was analyzed at different concentrations (1 μM or 5 μM) on histone H4 deacetylation, compared with established HDACi, entinostat, (pyridin-3-yl)methyl-4-(2-aminophenylcarbamoyl)benzylcarbamate, MS-275 (1 μM or 5 μM) as positive controls.
(In general: In western blotting, separated proteins are transferred to a membrane and probed.)

Data set [2] has as its system carrageenan-induced paw edema. Put plainly: Carrageenan-induced paw edema model. Conditions: in vivo.
In data set [3] the test system is antidepressant-like activity in animal models. Description: In vivo screening in animal models (antidepressant-like activity). Conditions: compared with PDX-101 (belinostat).
In data set [4] the test system is LPS-induced depressive behavior (immobility). Description: Tail suspension test (TST) with lipopolysaccharide-induced depressive behavior. The data set is classed as in vivo, mice. As for the experimental part: Randomly selected NIH Swiss adult male mice (7 weeks, ˜30 g) were divided into three groups of 5 mice in per group. LPS (Lipopolysaccharide) was administered as does 850 μg/kg in saline 100 μL intraperitoneally. After 1 h, chimeric compound (HM3a-R, FIG. 2A) or belinostat (Spectrum Pharmaceutical, Irvine, CA) was injected into mice as does 75 mg/kg in vehicle 100 μL intraperitoneally. Then the compounds were dissolved in 10% dimethyl sulfoxide and 90% vehicle mixture. Vehicle formulation is 45% (2-hydroxypropyl)-β-cyclodextrin solution. After 6 h and 24 h, tail suspension test was performed. Every tail-hanged mouse was video-recorded for 6 minutes. […] The tail suspension test (TST) was performed to assess antidepressant-like activity using lipopolysaccharide (LPS) which is an endotoxin that causes depressive behavior in mice. The antidepressant activities of HM3a-R and belinostat were compared with a control.

The subject of data set [5] is depressive symptoms among GBM patients. Description: Clinical trial of vorinostat in recurrent glioblastoma, depression assessed by IDS-SR. The data set is classed as in vivo, human. Here is the method: A clinical trial was performed to evaluate vorinostat for the treatment of recurrent glioblastomas (GBM). Among the pleiotropic effects of HDAC inhibitors is the ability to attenuate inflammation, an action seen at concentrations lower than those required to slow cancer cell growth. GBM is frequently associated with neuroinflammation, which is thought to have pro-tumorigenic effects. […] Such changes are associated with recruitment of macrophages along a hypoxia-mediated chemotactic gradient. Macrophages recruited to hypoxic sites exert tumor-promoting effects through the expression of genes with mitogenic, angiogenic, and migration/invasion stimulating properties. Abrogating inflammatory changes associated with GBM might reduce or eliminate access to these tumor-promoting effects. Another intriguing effect of HDACis as anticancer agents might be their mood-enhancing, potentially anti-depressant, properties. In mice, decreased histone acetylation in key mood-relevant genes was found following chronic social defeat stress, a mouse model of depression. […]
During the clinical trial, levels of depression were assessed using the Inventory of Depressive Symptomatology-Self Report (IDS-SR) to determine whether vorinostat alters the severity of depressive symptoms among GBM patients. […]

Data set [6] deals with antidepressant-like behavioral effects. Conditions: behaviorally inactive dose of ACY-738 co-administered with sub-effective dose of citalopram; cited from earlier work.
Where [7] appears, read: 75 mg/kg intraperitoneally, LPS 850 μg/kg, NIH Swiss male mice.

Each structure is given as a SMILES string. Entries after “also recorded” stand apart in the source; their conditions may differ.

As to `COC(=O)[C@]1(c2ccc(Cl)c(Cl)c2)C[C@H]1CNCc1ccc(C(=O)NO)cc1` [HM3a-R, (1R,2R)-methyl-1-(3,4-dichlorophenyl)-2-(((4-(hydroxycarbamoyl)benzyl)amino)methyl) cyclopropane-1-carboxylate], the “duration of immobility in FST” value in data set [1] (75 mg/kg intraperitoneally, 6 h, P<0.05) was “significantly less duration of immobility”. Also, the “improvement in forced-swim test (antidepressant-like activity)” value in [1] (75 mg/kg intraperitoneally) is reported as 23%. Also, the “antidepressant-like activity in FST relative to belinostat” value in [1] (23% vs. 12%) is given as “almost two-fold”. Also, the cellular toxicity entry in “Cellular toxicity” is reported as “without cellular toxicity”. For the same compound, the “anti-inflammation effect compared with the control group against xylene-induced ear edema” value in the data set with xylene-induced ear edema is given as 48%. Further, the “effectiveness against ear inflammation, comparison of enantiomers” value in the data set on xylene-induced ear edema (FIG. 3) was “more effective than HM3a-S”. Also, the “histone H4 acetylation” value in the data set with histone H4 deacetylation is “increased histone H4 acetylation”. The “effectiveness against carrageenan-induced paw edema, comparison of enantiomers” value in data set [2] is “more effective”. In addition, the “antidepressant-like activity and onset time in animal models” value in data set [3] is “excellent antidepressant-like activity and fast onset time”. Further, the “duration of immobility in TST at 6 h” value in data set [4] (setting [7]) was “significantly reduced duration of immobility; also recorded: reduction in immobility”. For the same compound, in data set [4] (75 mg/kg intraperitoneally, LPS 850 μg/kg, NIH Swiss male mice, 24 h), the “duration of immobility in TST at 24 h” value is “as effective as belinostat; also recorded: reduction in immobility”. Also, in data set [4] (P<0.01, n=5), the “onset of antidepressant action in TST versus belinostat” value was “faster onset of antidepressant action”.
As to `O=C(CCCCCCC(=O)Nc1ccccc1)NO` [vorinostat], the “GBM patients with improved IDS-SR scores” value in data set [5] (7 days of vorinostat treatment) is 67%. Moreover, the side effect result in data set [5] (most patients on treatment for more than 3 weeks) is given as “fatigue”.
For the compound `Nc1ccccc1NC(=O)c1ccc(CNC(=O)OCc2cccnc2)cc1` [MS-275, (pyridin-3-yl)methyl-4-(2-aminophenylcarbamoyl)benzylcarbamate], the “inhibition of histone H4 deacetylation, comparison” value with histone H4 deacetylation (1 μM and 5 μM) was “higher inhibitions than HM3a-R”. Also, in the data set on histone H4 deacetylation, the “histone H4 acetylation” value is recorded as “increased histone H4 acetylation”.
For `O=C(/C=C/c1cccc(S(=O)(=O)Nc2ccccc2)c1)NO` [belinostat, reference compound], the “improvement in forced-swim test (antidepressant-like activity)” value in data set [1] (75 mg/kg intraperitoneally) is reported as 12%. Further, the “duration of immobility in TST at 6 h” value in data set [4] (setting [7]) is listed as “didn't show any effect”.
Regarding `COC(=O)[C@@]1(c2ccc(Cl)c(Cl)c2)C[C@@H]1CNCc1ccc(C(=O)NO)cc1` [HM3a-S, (1S,2S)-methyl-1-(3,4-dichlorophenyl)-2-(((4-(hydroxycarbamoyl)benzyl)amino)methyl) cyclopropane-1-carboxylate], the “anti-inflammation effect compared with the control group against xylene-induced ear edema” value in the data set with xylene-induced ear edema is 23%.
For `O=C(NO)c1cnc(NC2(c3ccccc3)CC2)nc1` [ACY-738], the “effects comparable to a higher dose of citalopram administered alone” value in data set [6] was roughly 40 fold.
